In PubChem BioAssay (NCI):
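Grown in 96-well plates, cells were treated for 48 hours with each compound at five concentrations. Insufficient inhibition: endpoint recorded as highest concentration tested. TGI: concentration producing complete growth inhibition.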

How the values were obtained:
Assay in all cases: inhibition of tumour cell growth, NCI panel, 48 h
DU-145 prostate = tested on: DU-145 prostate
IGROV1 ovarian = tested on: IGROV1 ovarian
KM12 colon = tested on: KM12 colon
NCI-H226 lung = tested on: NCI-H226 lung
NCI-H23 lung = tested on: NCI-H23 lung
NCI-H522 lung = tested on: NCI-H522 lung
NCI/ADR-RES ovarian = tested on: NCI/ADR-RES ovarian
PC-3 prostate = tested on: PC-3 prostate
SK-OV-3 ovarian = tested on: SK-OV-3 ovarian
UO-31 renal = tested on: UO-31 renal
A549 NSCLC = tested on: A549 NSCLC
ACHN renal = tested on: ACHN renal
CCRF-CEM leukemia = tested on: CCRF-CEM leukemia
DLD-1 colon = tested on: DLD-1 colon
DMS 114 small cell lung = tested on: DMS 114 small cell lung
DMS 273 small cell lung = tested on: DMS 273 small cell lung
SF-268 CNS = tested on: SF-268 CNS
SF-539 CNS = tested on: SF-539 CNS
XF 498 CNS = tested on: XF 498 CNS
MDA-MB-231 breast = tested on: MDA-MB-231 breast

Measured: TGI

C/C(=N/NC(=O)c1ccncc1)C(F)(F)F
> 100 µM: DU-145 prostate | IGROV1 ovarian | KM12 colon | NCI-H226 lung | NCI-H23 lung | NCI-H522 lung | NCI/ADR-RES ovarian | PC-3 prostate | SK-OV-3 ovarian | UO-31 renal

CC(=O)CCC#Cc1ccccc1C(=O)C(C)=[N+]=[N-]
> 100 µM: A549 NSCLC | ACHN renal | CCRF-CEM leukemia | DLD-1 colon | IGROV1 ovarian | KM12 colon | NCI-H226 lung | NCI-H23 lung | SF-268 CNS | SF-539 CNS | SK-OV-3 ovarian | UO-31 renal
90.1 µM: DMS 273 small cell lung
89.3 µM: XF 498 CNS
42 µM: DMS 114 small cell lung

COC(=O)/C=C1\SC2(OC1=Nc1ccccc1)C1CC3CC(C1)CC2C3 (configuration not stated)
> 100 µM: A549 NSCLC | ACHN renal | CCRF-CEM leukemia | IGROV1 ovarian | KM12 colon | MDA-MB-231 breast | NCI-H226 lung | NCI-H522 lung | NCI/ADR-RES ovarian | PC-3 prostate | SF-539 CNS | SK-OV-3 ovarian | UO-31 renal

CN1C2CCC1/C(=C/c1cccc3c1OCO3)C(=O)/C2=C\c1cccc2c1OCO2
> 100 µM: ACHN renal | CCRF-CEM leukemia | DLD-1 colon | DMS 114 small cell lung | DMS 273 small cell lung | IGROV1 ovarian | KM12 colon | NCI-H226 lung | NCI-H23 lung | SF-268 CNS | SK-OV-3 ovarian | UO-31 renal | XF 498 CNS

CC(C)(C)[Si](C)(C)OCC1OC(n2cnc3c(N)ncnc32)C2OC(=S)OC12 (configuration not stated)
> 100 µM: DU-145 prostate | IGROV1 ovarian | KM12 colon | MDA-MB-231 breast | NCI-H226 lung | PC-3 prostate
97 µM: SK-OV-3 ovarian
78.3 µM: UO-31 renal
81.2 µM: NCI/ADR-RES ovarian
73.3 µM: NCI-H23 lung
59 µM: CCRF-CEM leukemia
